Data on two compounds can be found in paper PMC3162038 (Journal of the American Chemical Society, 2011).

Common to all, as to format: biochemical
One experiment deals with T1, VldB (Streptomyces hygroscopicus, UniProt Q15JG4).
T1 sequence (Q15JG4 1-373): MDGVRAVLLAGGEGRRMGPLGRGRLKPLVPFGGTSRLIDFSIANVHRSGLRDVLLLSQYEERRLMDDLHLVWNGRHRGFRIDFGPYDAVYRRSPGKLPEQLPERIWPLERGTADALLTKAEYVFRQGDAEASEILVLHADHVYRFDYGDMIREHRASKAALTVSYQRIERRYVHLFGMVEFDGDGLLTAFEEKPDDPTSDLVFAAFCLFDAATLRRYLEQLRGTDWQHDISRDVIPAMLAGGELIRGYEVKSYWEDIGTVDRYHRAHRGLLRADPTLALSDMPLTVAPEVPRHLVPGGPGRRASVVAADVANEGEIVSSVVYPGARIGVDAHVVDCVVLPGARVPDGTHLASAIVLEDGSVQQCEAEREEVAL
The experiment is described as follows: HPLC and ESI-MS of product. The conditions noted are these: valienol 1-phosphate as co-substrate; 1 mM Mg2+.

Another experiment deals with T2, VldH (Streptomyces hygroscopicus, UniProt Q15JF8).
T2 sequence (Q15JF8 1-213): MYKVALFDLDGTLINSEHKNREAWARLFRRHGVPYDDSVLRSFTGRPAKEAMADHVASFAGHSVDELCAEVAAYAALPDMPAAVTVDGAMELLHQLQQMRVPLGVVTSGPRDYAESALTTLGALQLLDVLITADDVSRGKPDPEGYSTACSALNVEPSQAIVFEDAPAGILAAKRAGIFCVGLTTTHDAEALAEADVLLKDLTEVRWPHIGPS
Kind of experiment: ESI-MS of product. The conditions noted are these: 5 mM substrate, 10 mM MgCl2, 50 mM Tris-HCl pH 7.5, 1.5 h.

The next experiment has as its target T3, OtsA (Escherichia coli, UniProt P31677).
T3 sequence (P31677 1-474): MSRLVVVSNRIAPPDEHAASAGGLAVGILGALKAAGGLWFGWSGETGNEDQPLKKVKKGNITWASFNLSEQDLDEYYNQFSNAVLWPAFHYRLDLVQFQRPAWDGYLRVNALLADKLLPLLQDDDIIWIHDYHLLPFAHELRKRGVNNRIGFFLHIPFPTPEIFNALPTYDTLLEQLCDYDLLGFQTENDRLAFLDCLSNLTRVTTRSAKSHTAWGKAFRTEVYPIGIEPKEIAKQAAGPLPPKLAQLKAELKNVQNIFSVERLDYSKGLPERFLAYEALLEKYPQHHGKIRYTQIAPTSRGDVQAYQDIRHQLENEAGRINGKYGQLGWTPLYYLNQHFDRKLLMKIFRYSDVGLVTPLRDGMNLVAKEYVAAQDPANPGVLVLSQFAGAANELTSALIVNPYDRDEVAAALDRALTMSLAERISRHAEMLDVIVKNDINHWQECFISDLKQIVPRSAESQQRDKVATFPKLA
The experiment is described as follows: ESI-MS of product. The note with it: UDP-glucose and glucose 6-phosphate as substrates; 5 mM MgCl2, 50 mM Tris-HCl pH 7.5.

Regarding `Nc1nc2c(ncn2[C@@H]2O[C@H](COP(=O)(O)OP(=O)(O)OP(=O)(O)O)[C@@H](O)[C@H]2O)c(=O)[nH]1` [GTP], the “HPLC and ESI-MS of product” value on VldB was “effectively catalyzes the conversion of valienol 1-phosphate to GDP-valienol”. Consider `O=P(O)(O)OC[C@H]1O[C@H](O[C@H]2O[C@H](CO)[C@@H](O)[C@H](O)[C@H]2O)[C@H](O)[C@@H](O)[C@@H]1O` [trehalose 6-phosphate], for which the ESI-MS of product entry on VldH is reported as “VldH was able to catalyze dephosphorylation of trehalose 6-phosphate to give trehalose”; on OtsA it was “the recombinant OtsA can catalyze the formation of trehalose 6-phosphate”.
